Experimental data as given in patent US6444194B1, “Indium photosensitizers for PDT” (Miravant Pharmaceuticals, Inc., priority 1997, dated 2002).

Assays:
BA mammary carcinoma = test: In vivo assay of photosensitizers on tumors (PDT tumor cure); set-up: species or system C3H/HeJ mice; details: light dose 200 J/cm^2, n = 10
Description: Female C3H/HeJ mice (8-9 weeks old) were subjected to trochar implantation of BA mammary carcinoma on the hind leg of the animals. Animals having tumors ca 5 mm in diameter were entered into the in vivo screen. For each new photosensitizer, a group of at least three mice were used to ascertain a drug dose that caused a response as described in table 3 when treated with the appropriate wavelength of light. Generally in this series, animals were injected with 1 μ mole of sensitizer/Kg of body weight, formulated in egg yolk phosphatidate (EYP), via the tail vein. At a defined time period later the animals were irradiated with light from a laser source tuned to the wavelength of activation of the sensitizer. The power density of the laser was set at 75 mW/cm^2 with a total light dose of 200 J/cm^2.

[1] = test system: Chinese hamster lung fibroblasts (V-79); test: DC(50)(light): colony-formation phototoxicity after laser irradiation; type: cell-based; details: V-79 cells; sensitizer incubation 16-24 hours; 12.5 mW/cm^2, total light dose 1.25 J/cm^2; concentration for lethal damage to 50% of cells
Description: (§1) For the Biological Evaluation, Chinese hamster lung fibroblasts (V-79) obtained from the American Tissue Culture Collection were grown in D-MEM supplemented with 10% fetal calf serum at 37° C., 5% CO2, and 95% humidity. These cells were used to evaluate the sensitizers for dark and light toxicity, and cellular uptake. Medium was replaced with 5% fetal calf serum supplemented medium during sensitizer incubations.
In the first phase, the combination of intracellular and extracellular concentration of photosensitizer required for lethal damage to 50% of the cells in culture (DC(50)) on light exposure was determined by plating cells at a density of 100 cells/cm^2 and incubating for 1-3 hours to allow attachment of the cells. Cells were incubated with various concentrations of sensitizer ([C]=0.01-1.0 μM) delivered in non-toxic concentrations of DMSO/5% dextrose solution or in some cases in egg yolk phosphatidase (EYP) for 16-24 hours. The cells were then irradiated with laser light using a tunable Lexel argon pumped dye laser at the band I absorption of the photosensitizer. Total power density was adjusted to 12.5 mW/cm^2 and a total light dose of 1.25 J/cm^2 was applied. After treatment, cells were washed with HBSS, refed with 10% FBS supplemented DMEM with phenol red and incubated for 3-5 days to allow colony formation. Cells were fixed in methanol, stained with Giemsa, and colonies were counted. Plating efficiency was determined using a control colony and the mean percent survival fraction plotted against the sensitizer concentration and the DC50 established (Table 5).

[2] = Photophysical measurements of photosensitizers (λmax, ε, φ f); type: physicochemical; set-up: λmax: unit not given here; details: for ε: at λmax; for λmax: band I absorption maximum
V-79 cells = test: Cellular uptake of photosensitizer; type: in vitro ADME, Chinese hamster; details: 10 μM photosensitizer in EYP
Description: as §1
Several photosensitizers were screened by a standard cellular uptake protocol. A 10 μM stock solution of photosensitizer in EYP was prepared by dilution of the photosensitizer stock (1 mM) using 5% dextrose solution. […] Following incubation the cells were washed with PBS (1 mL) three times, then washed with HBSS (1 mL) and detached using 100 μL of trypsin. Individual wells containing cells were lysed by three freeze thaws.
Spiking experiments were performed to confirm that the sensitizer could be adequately recovered using standard procedures. The sensitizer was then extracted from the cell debris with DMSO, centrifuged and the supernatant examined for fluorescence. Sensitizer concentration was determined by comparison to a standard curve. Results are expressed in ug/ug protein. Untreated monolayers are used to determine cell count. Treated cells of each time point were used to determine the protein concentration using the BCA assay. Results shown are the mean of the three experiments for each timepoint.

[3] = drug dose 0.05 μm/Kg via tail vein in EYP, treatment 24 post injection
[4] = drug dose 2.5 μm/Kg via tail vein in EYP, treatment 24 post injection
[5] = drug dose 3 μm/Kg via tail vein in EYP, treatment 24 post injection
[6] = drug dose 0.1 μm/Kg via tail vein in EYP, treatment 24 post injection

| Compound | IC50 [1] | φ f [2] | ε [2] | λmax [2] | also measured |
| --- | --- | --- | --- | --- | --- |
| CCC1=C(CC)C2=NC1=Cc1c(CC)c(CC)c3[n]1[In]([Cl])[n]1c(c(CC)c(CC)c1=c1cc(S(=O)(=O)NCCN(C)C)cc4c1=NC(=C3)C4(CC)CC)=C2 [Compound 15] | 0.05 µM | ˜0.03 | 52,000 M^−1 cm^−1 | 684 | % Cure (30 days) (BA mammary carcinoma; [3]): 100% |
| CCC1=C(CC)C2=NC1=Cc1c(CC)c(CC)c3[n]1[In]([Cl])[n]1c(c(CC)c(CC)c1=c1cc(S(=O)(=O)NCCCCCO)cc4c1=NC(=C3)C4(CC)CC)=C2 [Compound 13] | 0.04 µM | ˜0.03 | 52,000 M^−1 cm^−1 | 684 | % Cure (30 days) (BA mammary carcinoma; drug dose 0.075 μm/Kg via tail vein in EYP, treatment 24 post injection): 80% |
| CCC1=C(CC)c2cc3[nH]c(c(CC)c3CC)c3cc(C)cc4c3nc(cc3[nH]c(cc1n2)c(CC)c3CC)C4(CC)CC [Compound 3] |  | 0.35 | 35,000 M^−1 cm^−1 | 658 | % Cure (30 days) (BA mammary carcinoma; [4]): 60% |
| C=Cc1c(C)c2[n]3c1=CC1=NC(=Cc4c(C)c5c([n]4[In]3[Cl])C(=C3N=C(C=2)[C@@H](C)[C@@H]3CCC(=O)OC)CC5=O)C(CC)=C1C [Compound 24] |  |  |  |  | % Cure (30 days) (BA mammary carcinoma; drug dose 0.2 μm/Kg via tail vein in EYP, treatment 6 or 8 post injection): 80% |
| CCC1=C(CC)c2cc3[nH]c(c(CC)c3CC)c3cc(S(=O)(=O)NCCCO)cc4c3nc(cc3[nH]c(cc1n2)c(CC)c3CC)C4(CC)CC [Compound 2, OEBCSO2NH(CH2)3OH] | 0.5 to 1 µM | 0.230 | 34,000 M^−1 cm^−1 | 665 | % Cure (30 days) (BA mammary carcinoma; [4]): 80%; Cellular uptake (24 hrs) (V-79 cells): 0.129 ρmole/μg protein |
| CCC1=C(CC)c2cc3[nH]c(c(CC)c3CC)c3cccc4c3nc(cc3[nH]c(cc1n2)c(CC)c3CC)C4(CC)CC [Compound 1, Octaethylbenzochlorin] | > 1 µM | 0.347 | 35,000 M^−1 cm^−1 | 658 | % Cure (30 days) (BA mammary carcinoma; [5]): 60% |
| CCC1=C(CC)C2=NC1=Cc1c(CC)c(CC)c3[n]1[Zn][n]1c(c(CC)c(CC)c1=c1cccc4c1=NC(=C3)C4(CC)CC)=C2 [Compound 4] | > 1 µM | 0.150 | 57,000 M^−1 cm^−1 | 678 | % Cure (30 days) (BA mammary carcinoma; [5]): 0% |
| CCC1=C(CC)C2=NC1=Cc1c(CC)c(CC)c3[n]1[In]([Cl])[n]1c(c(CC)c(CC)c1=c1cc(S(=O)(=O)NC(CO)(CO)CO)cc4c1=NC(=C3)C4(CC)CC)=C2 [Compound 19, InOEBCSO2NHC(CH2OH)3] | 0.04 µM | 0.03 | 52,000 M^−1 cm^−1 | 684 |  |
| tin octaethylbenzochlorin [Compound 6] | 0.08 to 0.16 µM | 0.044 | 54,000 M^−1 cm^−1 | 691 | % Cure (30 days) (BA mammary carcinoma; drug dose 0.75 μm/Kg via tail vein in EYP, treatment 24 post injection): 80%; Cellular uptake (24 hrs) (V-79 cells): 0.501 ρmole/μg protein |
| CCC1=C(CC)C2=NC1=Cc1c(CC)c(CC)c3[n]1[In]([Cl])[n]1c(c(CC)c(CC)c1=c1cc(S(=O)(=O)N(CCO)CCO)cc4c1=NC(=C3)C4(CC)CC)=C2 [Compound 12] | 0.04 µM | ˜0.03 | 52,000 M^−1 cm^−1 | 684 | % Cure (30 days) (BA mammary carcinoma; [3]): 90% |
| CCC1=C(CC)C2=NC1=Cc1c(CC)c(CC)c3[n]1[In]([Cl])[n]1c(c(CC)c(CC)c1=c1cc(S(=O)(=O)NCCCS)cc4c1=NC(=C3)C4(CC)CC)=C2 [Compound 18] | 0.04 µM | 0.03 | 52,000 M^−1 cm^−1 | 684 |  |
| CCC1=C(C)C2=NC1=Cc1c(C)c3c4[n]1[Pd][n]1c(c(C)c(C(C)=O)c1=C2)=CC1=NC(=C4CC3=O)[C@@H](CCC(=O)OC)[C@@H]1C [Compound 28] | 0.05 µM |  |  | 653 | % Cure (30 days) (BA mammary carcinoma; drug dose 0.2 μm/Kg via tail vein in EYP, treatment 8 post injection): 80% |
| CCC1=C(CC)C2=NC1=Cc1c(CC)c(CC)c3[n]1[In]([Cl])[n]1c(c(CC)c(CC)c1=c1cc(S(=O)(=O)NCC(=O)O)cc4c1=NC(=C3)C4(CC)CC)=C2 [Compound 20] | 0.04 µM |  | 52,000 M^−1 cm^−1 | 684 |  |
| CCC1=C(CC)C2=NC1=Cc1c(CC)c(CC)c3[n]1[In]([Cl])[n]1c(c(CC)c(CC)c1=c1cc(S(=O)(=O)NCCCO)cc4c1=NC(=C3)C4(CC)CC)=C2 [Compound 10, InOEBCSO2NH(CH2)3OH] | 0.1 to 0.125 µM | 0.027 | 52,000 M^−1 cm^−1 | 684 | % Cure (30 days) (BA mammary carcinoma; [6]): 100% |
| CCC1=C(CC)C2=NC1=Cc1c(CC)c(CC)c3[n]1[In]([Cl])[n]1c(c(CC)c(CC)c1=c1cc(S(=O)(=O)NCCCCC(N)C(=O)O)cc4c1=NC(=C3)C4(CC)CC)=C2 (centres unmarked) [Compound 21, InOEBCSO2NH (CH2)4CH(NH2)CO2H] | 0.04 µM | 0.03 | 52,000 M^−1 cm^−1 | 684 |  |
| CCC1=C(C)C2=NC1=Cc1c(C)c3c4[n]1[In]([Cl])[n]1c(c(C)c(C(C)=O)c1=C2)=CC1=NC(=C4CC3=O)[C@@H](CCC(=O)OC)[C@@H]1C [Compound 26, Indium 2-desvinyl-2-acetyl pyropheophorbide] | 0.06 µM |  |  | 672 | % Cure (30 days) (BA mammary carcinoma; drug dose 0.125 μm/Kg via tail vein in EYP, treatment 8 post injection): 90% |
| C=Cc1c(C)c2cc3nc(c4c5[nH]c(cc6nc(cc1[nH]2)C(C)=C6CC)c(C)c5C(=O)C4)[C@@H](CCC(=O)OC)[C@@H]3C [Compound 22] |  |  |  |  | % Cure (30 days) (BA mammary carcinoma; drug dose 10.6 μm/Kg via tail vein in EYP, treatment 3 post injection): 50% |
| CCC1=C(CC)C2=NC1=Cc1c(CC)c(CC)c3[n]1[In]([Cl])[n]1c(c(CC)c(CC)c1=c1cccc4c1=NC(=C3)C4(CC)CC)=C2 [Compound 9, In Octaethylbenzochlorin] | 0.1 µM | 0.028 | 53,000 M^−1 cm^−1 | 691 | % Cure (30 days) (BA mammary carcinoma; [6]): 70%; Cellular uptake (24 hrs) (V-79 cells): 0.336 ρmole/μg protein |
| C=Cc1c(C)c2[n]3c1=CC1=NC(=Cc4c(C)c5c([n]4[Sn]3([Cl])[Cl])C(=C3N=C(C=2)[C@@H](C)[C@@H]3CCC(=O)OC)CC5=O)C(CC)=C1C [Compound 23] | > 1 µM |  |  |  | % Cure (30 days) (BA mammary carcinoma; drug dose 2.0 μm/Kg via tail vein in EYP, treatment 24 or 6 post injection): 0% |
| CCC1=C(CC)C2=NC1=Cc1c(CC)c(CC)c3[n]1[In]([Cl])[n]1c(c(CC)c(CC)c1=c1cc(C)cc4c1=NC(=C3)C4(CC)CC)=C2 [Compound 11] |  | 0.034 | 54,000 M^−1 cm^−1 | 687 | % Cure (30 days) (BA mammary carcinoma; drug dose 0.15 μm/Kg via tail vein in EYP, treatment 24 post injection): 90% |
| CCC1=C(CC)C2=NC1=Cc1c(CC)c(CC)c3[n]1[In]([Cl])[n]1c(c(CC)c(CC)c1=c1cc(S(=O)(=O)NCCOCCOCCOC)cc4c1=NC(=C3)C4(CC)CC)=C2 [Compound 16] | 0.04 µM | ˜0.03 | 52,000 M^−1 cm^−1 | 684 | % Cure (30 days) (BA mammary carcinoma; [3]): 80% |
| Indium 2-desvinyl-2-formyl pyropheophorbide [Compound 27] | 0.05 µM |  |  | 683 | % Cure (30 days) (BA mammary carcinoma; drug dose 0.1 μm/Kg via tail vein in EYP, treatment 8 post injection): 90% |
